The text below walks through data of patent US20190307908A1, “NANOEMULSION AGENTS FOR ULTRASOUND DIAGNOSTIC AND THERAPY” (University of Washington, priority 2018, published 2019).

The structures appear in SMILES notation.

A short description of data set [1]: maximum PFC dissolved in ethanol. The class given is physicochemical. Particulars: in ethanol (co-solvent). The method, then: PFC ouzo droplets were synthesized by first dissolving a PFC into ethanol (co-solvent). A maximum of approximately 2.0% perfluorohexane (C6F14, TBoiling=56° C.), 2.3% perfluoropentane (C5F12, TBoiling=29° C.), 2.5% perfluorobutane (C4F10, TBoiling=2° C.), and 2.7% perfluoropropane ([…], TBoiling=−37° C.) by volume could be dissolved in ethanol. In the ethanol phase, a 20:1 mole ratio of dipalmitoylphosphatidylcholine (DPPC) and N-(Methylpolyoxyethylene oxycarbonyl)-1,2-distearoyl-sn-glycero-3-phosphoethanolamine sodium salt (DSPE-PEG 2K) lipids were also dissolved. The total lipid concentration was varied from 0.10 mg/ml to 1.82 mg/ml depending on the volume of perfluorocarbon that was used. […] However, lower concentration lipids solutions were not used to ensure ample lipids were in solution to stabilize the droplet interface. […] When an aqueous solution (solvent) prepared at a ratio of 7:2:1 water/propylene glycol/glycerol is added to the PFC/ethanol solution, the PFC oil phase quickly loses solubility resulting in the spontaneous nucleation of stable droplets (FIG. 2). Since PFCs are known to have very poor solubility in water, the greater the water content relative to ethanol, the lower the PFC solubility is in the final mixed solvent. The inclusion of glycerol and propylene glycol is optional for droplet nucleation. For example, PFC emulsions can also be generated in the absence of any stabilizer (FIGS. 8 and 9). However, glycerol and propylene glycol are commonly used along with lipid mixtures to improve microbubble stability. Here, glycerol and propylene glycol were also included in the ouzo droplet formulation to make the agent composition analogous to microbubbles and to increase stability.
The lipid-ethanol stock solution was then divided as needed. Using a stir plate, PFCs were then dissolved in the lipid-ethanol solution until it was fully saturated. For liquid PFCs (i.e. PFH and PFP), the PFC oil was incrementally added to the stirred ethanol solution until a small droplet of PFC formed in solution. The solution was then removed from the stir plate and allowed to rest at room temperature for approximately 20 minutes, enabling excess PFC to fall to the bottom of the container. For gaseous PFCs (i.e. PFB and OFP), PFC gas was bubbled into a sealed glass vial with the ethanol solution at a pressure of 1.5-2.0 PSI while on ice. It was bubbled through for a minimum of 2 minutes and purged 3 times to ensure the headspace was filled with gaseous PFC. Then, the PFC-lipid-ethanol solution was pipetted into a clean glass vial and diluted as needed using additional lipid-ethanol solution to achieve the desired PFC in ethanol saturation percentage. […]

Data set [2] deals with rat spinal cord. Nature of the data set: ultrasound contrast imaging in a rat spinal cord model. The class given is in vivo, Sprague-Dawley rat. The conditions noted are these: bolus via tail vein, 15 MHz linear array, harmonic imaging. The method, then:
Ouzo-synthesized droplets were used as an ultrasound contrast agent in a rat spinal cord model (FIGS. 7A-7D). Surgical procedures were performed according to approved institutional animal care and use committee (IACUC) protocol following all appropriate guidelines from the university's Animal Welfare Assurance (A3464-01) as well as the NIH Office of Laboratory Animal Welfare (OLAW). A laminectomy was performed to remove the top surface of spine vertebrae, exposing the spinal cord. A bolus injection of perfluorobutane droplets ([…]) with a mean diameter of 182 nm was administered via tail vein and imaged using a 15 MHz linear array ultrasound transducer. […] Harmonic imaging was necessary to suppress intrinsic linear signals from this tissue model and to highlight the non-linear signals that are generated from bubble oscillations.
Surgical procedures were performed according to approved institutional animal care and use committee (IACUC) protocol following all appropriate guidelines from the university's Animal Welfare Assurance (A3464-01) as well as the NIH Office of Laboratory Animal Welfare (OLAW). A 0.2 ml bolus injection of perfluorobutane droplets diluted to approximately 10^6 droplet/ml was injected via tail vein in an anesthetized female Sprague-Dawley rat. An ultrasound imaging window was made by performing a laminectomy to expose the spinal cord between T6 and T10. […]

With `FC(F)(F)C(F)(F)C(F)(F)C(F)(F)F` [perfluorobutane], the “maximum that could be dissolved in ethanol” value in data set [1] is on record as approximately 2.5 % by volume.
As for `FC(F)(F)C(F)(F)C(F)(F)C(F)(F)C(F)(F)C(F)(F)F` [perfluorohexane], in data set [1], the “maximum that could be dissolved in ethanol” value is given as “approximately 2.0 % by volume”. For the same compound, the “ultrasound contrast enhancement after injection” value in data set [2] is “nearly zero contrast enhancement”.
For `FC(F)(F)C(F)(F)C(F)(F)C(F)(F)C(F)(F)F` [perfluoropentane], in data set [1], the “maximum that could be dissolved in ethanol” value is approximately 2.3 % by volume. For the same compound, the “ultrasound contrast enhancement after injection” value in data set [2] was “nearly zero contrast enhancement”.
As to `FC(F)(F)C(F)(F)C(F)(F)F` [perfluoropropane], the “maximum that could be dissolved in ethanol” value in data set [1] was approximately 2.7 % by volume.
